# Measurements as given in US10053422B2, “Compounds for the treatment of mTOR pathway related diseases” (Pitney Pharmaceuticals Pty Limited, priority 2012, dated 2018).
# Read-outs that look alike come from different tables or passages of the source.
# What was measured:
# [1] = tested on: mTOR signaling in s.c. grown OVCAR-3 tumors; test: Western blot of tumor lysates, mTOR related signaling; format: in vivo, female nude mice
# Protocol: Western blot analysis of tumor lysates prepared from s.c. grown OVCAR-3 tumors in female nude mice. Mice were treated from day 8 post cell inoculation i.p. for 3 weeks with MPL (25, 50 mg/kg suspended in 0.5% HPMC given i.p.) or the vehicle (0.5% HPMC). 24 hours after the last dose, tumors were excised and frozen at −80° C. […] Protein expression of mTOR together with c-Myc, cyclins D1 and E2 and CDKs 2 and 4 were suppressed in tumors excised from MPL treated mice.
# Female nude mice (6 weeks old) were purchased from Biological Resources (Faculty of Medicine, University of New South Wales). An institutional animal ethics approval covered all procedures carried out on mice. Briefly, 2.5×10^6 log-phase growing OVCAR-3 cells were injected s.c. into the left flank of each mouse. Animals were weighed once weekly while their tumor volumes were determined twice weekly. Tumor growth was monitored by caliper measurements of orthogonal diameters, and the estimated tumor volume was calculated based on the formula ½ (Length×Width^2), where width is the shorter of the two orthogonal measurements. Based on institutional ethics approval, mice were euthanized before the tumor volume reached 500 mm^3. Treatment was initiated on day 8 after tumor cell injection when mice were randomized and assigned to treatment or the control group (6 per group). […]
# [2] = tested on: Normal cells HOSE, CHO, HEK and HUVEC; test: Cell viability assay (Trypan blue), normal cells; format: cell-based; conditions: MPL 0, 5, 10, 25 μmol/L, 72 h
# Protocol: Normal cells HOSE, CHO, HEK and HUVEC were cultured in the presence of MPL (0, 5, 10, 25, μmol/L) for 72 h. Effect of MPL on cell viability was assessed using the standard Trypan blue assay. Results are presented as mean±SEM compared to control (100%).
# For viability experiments, cells seeded in 6 well plates were exposed to monepantel (MPL) at 0, 1, 10, 50 and 100 μM concentrations for 24, 48 or 72 h. Monepantel (gift by Novartis, Basel, Switzerland) was dissolved in 100% ethanol and then diluted with the cell culture media. At the end of treatment period, cells were washed with PBS, trypsinized and counted using Trypan blue and hemocytometer. All experimental points were set up in quadruplicate and each experiment was performed at least twice.
# In brief, MPL and MPL-SO2 were tested in vitro against a wide range of cancer cell-lines with extensively different disease characteristics. For further detailed studies, human ovarian cancer cell lines OVCAR-3 and A2780 were chosen. […] Cell viability was assessed using Trypan blue assay (FIG. 9). Similarly, effect of MPL on the growth of normal epithelial, endothelial, embryonic and fetal cells were investigated (FIG. 10) while cell proliferation was assessed using the SRB assay (FIG. 11). Control (vehicle treated) cells were taken to present 100% proliferation and the MPL treated groups are expressed as percentage of control±SEM. […]
# T47-D cells = test: SRB cell proliferation assay, T47-D; format: cell-based; conditions: Homo sapiens, T47D
# Protocol: (§1) Cell proliferation was assessed using the sulforhodamine B (SRB) assay. Cells seeded in 96-well plate (2,000-3,000 cell/well) were treated with MPL (0, 1, 5, 10, 25, 50 and 100 μmol/L) for 72 h. Cells were then fixed, washed and stained with 100 μl of 0.4% (w/v) SRB dissolved in 1% acetic acid. Unbound dye was removed by five washes with 1% acetic acid before air drying. Bound SRB was solubilized with 100 μl of 10 mM Tris base (pH 10.5) and the absorbance read at 570 nm. Exactly the same procedure was used to assess MPL-SO2. Both agents were dissolved in ethanol and diluted with media to give the final concentrations required for cell culture assays.
# IGROV-1 cells = test: SRB cell proliferation assay, IGROV-1; format: cell-based; conditions: Homo sapiens
# Protocol: as §1
compound,measurement,setting,value
"C[C@](C#N)(COc1cc(C#N)ccc1C(F)(F)F)NC(=O)c1ccc(SC(F)(F)F)cc1 [MPL, N-[(1S)-1-Cyano-2-(5-cyano-2-trifluoromethyl-phenoxy)-1-methyl-ethyl]-4-trifluoromethylsulfanyl-benzamide]",tumor mTOR signaling (Western blot),"[1]; 25, 50 mg/kg i.p. for 3 weeks, tumors excised 24 hours after last dose",suppression of mTOR signaling
same,tumor expression of cyclin D1,[1]; MPL treated tumor bearing mice,dramatic down-regulation of cyclin D1
same,viability of normal cells,[2],cancer cell orientated
same,IC50,"T47-D cells; breast cancer (Table 2), read-out: IC50 in suppressing proliferation",5.3 ± 0.003 µM
same,IC50,"T47-D cells; breast cancer, 72 h, SRB assay (Table 1), read-out: IC50",5.7 µM
same,IC50,"IGROV-1 cells; IGROV-1, ovarian cancer (Table 2), read-out: IC50 in suppressing proliferation",4.4 ± 0.27 µM
same,IC50,"IGROV-1 cells; IGROV-1, ovarian cancer, 72 h, SRB assay (Table 1), read-out: IC50",6.1 µM
